Results taken from patent US20120059162A1, “FUSED IMIDAZOLE DERIVATIVE HAVING TTK INHIBITORY ACTION” (Oncotherapy Science, Inc., priority 2009, published 2012).
Read-outs that look alike come from different tables or passages of the source.

Legend:
TTK = molecular target: T1, TTK (Homo sapiens, UniProt P33981); assay: TTK assay: screening of TTK kinase activity suppressing action using p38 MAPK peptide; format: biochemical
T1 sequence (P33981 1-857): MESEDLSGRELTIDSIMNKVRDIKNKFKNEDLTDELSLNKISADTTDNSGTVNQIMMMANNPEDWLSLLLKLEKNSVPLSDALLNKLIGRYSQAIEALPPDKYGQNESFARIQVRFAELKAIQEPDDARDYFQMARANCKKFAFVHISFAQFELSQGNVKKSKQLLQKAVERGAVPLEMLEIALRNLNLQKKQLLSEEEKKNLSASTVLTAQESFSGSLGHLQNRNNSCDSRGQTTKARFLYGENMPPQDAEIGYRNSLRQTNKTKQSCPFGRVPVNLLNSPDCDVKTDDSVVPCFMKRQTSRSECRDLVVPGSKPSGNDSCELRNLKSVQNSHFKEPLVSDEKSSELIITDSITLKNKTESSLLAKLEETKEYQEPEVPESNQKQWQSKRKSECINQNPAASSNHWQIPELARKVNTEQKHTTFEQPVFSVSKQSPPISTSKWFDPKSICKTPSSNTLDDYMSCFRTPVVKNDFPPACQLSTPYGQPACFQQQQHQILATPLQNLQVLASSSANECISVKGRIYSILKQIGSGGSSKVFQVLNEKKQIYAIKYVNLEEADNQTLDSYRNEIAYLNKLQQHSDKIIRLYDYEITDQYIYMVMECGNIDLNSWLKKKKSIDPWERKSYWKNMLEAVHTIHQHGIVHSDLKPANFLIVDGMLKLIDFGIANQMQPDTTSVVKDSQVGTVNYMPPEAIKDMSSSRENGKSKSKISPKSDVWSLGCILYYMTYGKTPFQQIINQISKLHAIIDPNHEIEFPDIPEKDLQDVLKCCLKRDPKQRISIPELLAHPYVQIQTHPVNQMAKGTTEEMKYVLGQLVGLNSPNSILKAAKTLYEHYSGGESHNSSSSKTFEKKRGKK
Description: Screening of a compound having a TTK kinase activity suppressing action using p38 MAPK peptide
A test substance 1.0 μL (solvent: 10% (v/v) DMSO), TTK solution 5 μL (composition: 4 μg/ml TTK, 25 mM Tris-HCl, pH7.5, 5 mM β-glycerophosphate, 2 mM DTT, 0.1 mM Na3VO4, 5 mM MgCl2, 0.1% (w/v)BSA) and a substrate solution 5 μL (composition: 60 μM p38 MAPK peptide, 60 μM ATP, 25 mM Tris-HCl, pH7.5, 5 mM β-glycerophosphate, 2 mM DTT, 0.1 mM Na3VO4, 5 mM MgCl2, 0.1% (w/v)BSA) were mixed in the wells of a 384-well microtiter plate (manufactured by Corning Incorporated) made of polypropylene and loaded in a constant temperature and humidity room.
From the resultant mixture, an aliquot of 1.7 μL was taken out and mixed with the reaction terminating solution (60 μl) in the wells of a 384-well microtiter plate (manufactured by Corning Incorporated) made of polypropylene. Thereafter, 40 μL of the mixture was transferred to a 384-well black NeutrAvidin plate (PIERCE), sealed and incubated under room temperature for 30 minutes. […] Similarly, the plate was washed with TTBS (100 μL) three times, 40 μl of a secondary antibody solution (Eu-N1 labeled Anti-mouse IgG (Perkin Elmer, #AD0124)) was added and incubated under room temperature for 30 minutes. After the plate was washed with TTBS (100 μL) five times, 40 μL of an enhance solution (Perkin Elmer) was added and incubated under room temperature for 5 minutes. […] Based on the fluorescence value in the absence of a test substance, the suppression activity of a test substance was measured.

A549 = A549 assay: screening of cancer cell growth inhibiting compound; format: cell-based; details: Homo sapiens
Description: Screening of Cancer Cell Growth Inhibiting Compound
A cell suspension solution (RERF-LC-AI, A549: 1×10^4/ml, MRC5: 3×10^4/ml and 1×10^5/ml) adjusted to an appropriate concentration with D-MEM (hereinafter, referred to as a culture solution and manufactured by Nacalai Tesque Inc.) supplemented with 10% FBS (HyClone) was added to the wells of a 96-well plate (hereinafter, well plate) at a rate of 100 μL/well and incubated in a CO2 incubator at 37° C. for a day. […] Next, cells were added to each well of the well plate prepared and the above compound dilution solution was added at a rate of 100 μL/well to obtain 200 μL/well. Thereafter, the cells were incubated in the CO2 incubator at 37° C. for further three days. To each well of the well plate, 10 μL of a WST-8 kit (Kishida Chemical Co., Ltd.) solution for counting the number of cells was added and a color reaction was performed in the CO2 incubator for 1 to 4 hours. After the absorbance at 450 nm (reference wavelength: 620 nm) was measured by a microplate reader, suppressing action of the test substance was calculated based on the absorbance value in the absence of a test substance.

[1] = p38 MAPK peptide substrate, read-out: TTK IC50
[2] = 72 h, A549 cells, three days, WST-8, read-out: A549 IC50

SMILES | IC50 (TTK; [1]) | IC50 (A549; [2]) | IC50 (TTK; read-out: TTK IC50) | IC50 (TTK) | IC50 (A549; A549, 72 h, read-out: A549 IC50 (μM))
N#Cc1ccc(-c2cn3c(-c4ccc(C(=O)NC5CC5)cc4)cnc3c(NCCSCCO)n2)cc1 [Example 1-214] | 6.7 nM | 0.05 to 0.5 µM |  |  | 
N#Cc1ccc(-c2cn3c(-c4ccc(C(=O)NC5CC5)cc4)cnc3c(NCCS(=O)(=O)N3CCCC3)n2)cc1 [Example 1-224] | 18.3 nM | 0.5 to 1 µM |  |  | 
N#Cc1ccc(-c2cn3c(-c4ccc(C(=O)NC5CC5)cc4)cnc3c(NCCc3ccc(O)cc3)n2)cc1 [Example 1-228] | 20.5 nM | 0.5 to 1 µM |  |  | 
CC(=O)N1CCC(CNc2nc(-c3ccc(C#N)cc3)cn3c(-c4ccc(C(=O)NC5CC5)cc4)cnc23)CC1 [Example 1-233] | 20.2 nM | 0.5 to 1 µM |  |  | 
CC(C)(O)CNc1nc(-c2ccc(C#N)cc2)cn2c(-c3ccc(C(=O)NC4CC4)cc3)cnc12 [Example 1-235] | 12.8 nM | 0.05 to 0.5 µM |  |  | 
N#Cc1ccc(-c2cn3c(-c4ccc(C(=O)NC5CC5)cc4)cnc3c(NCCCCO)n2)cc1 [Example 1-238] | 14.3 nM | 0.05 to 0.5 µM |  |  | 
CC(C)CNc1cc(NC2CCCCC2)nn2c(-c3ccc(C(=O)NC4CC4)cc3)cnc12 [Example 2-2, 4-(6-(Cyclohexylamino)-8-(isobutylamino)imidazo[1,2-b]pyridazin-3-yl)-N-cyclopropylbenzamide] |  |  |  | 11.8 nM | 0.05 to 0.5 µM
O=C(NC1CC1)c1ccc(-c2cc(NCC3CCOCC3)c3ncc(-c4ccc(C(=O)NC5CC5)cc4)n3n2)cc1 [Example 2-6, 4,4′-(8-((Tetrahydro-2H-pyran-4-yl)methylamino)imidazo[1,2-b]pyridazine-3,6-diyl)bis(N-cyclopropylbenzamide)] | 11.9 nM | 0.05 to 0.5 µM |  |  | 
O=C(NC1CC1)c1ccc(-c2cnc3c(NCC4CCOCC4)cc(N4CCCCC4)nn23)cc1 [Example 2-12] | 8.4 nM | 0.05 to 0.5 µM |  |  | 
O=C(NC1CC1)c1ccc(-c2cnc3c(NCC4CCOCC4)cc(NC4CCOCC4)nn23)cc1 [Example 2-13] | 5.9 nM | 0.05 to 0.5 µM |  |  | 
CN(c1cc(NCC2CCOCC2)c2ncc(-c3ccc(C(=O)NC4CC4)cc3)n2n1)C1CCCCC1 [Example 2-17] | 3.1 nM | ≤ 0.05 µM |  |  | 
COCCNc1cc(NCC2CCOCC2)c2ncc(-c3ccc(C(=O)NC4CC4)cc3)n2n1 [Example 2-18] | 18.4 nM | 0.05 to 0.5 µM |  |  | 
CC1CCC(Nc2cc(NCC3CCOCC3)c3ncc(-c4ccc(C(=O)NC5CC5)cc4)n3n2)CC1 (stereo not shown) [Example 2-19] | 6 nM | 0.05 to 0.5 µM |  |  | 
CC(C)CNc1cc(NCC2CCOCC2)c2ncc(-c3ccc(C(=O)NC4CC4)cc3)n2n1 [Example 2-22] | 6.2 nM | 0.05 to 0.5 µM |  |  | 
O=C(NC1CC1)c1ccc(-c2noc3c(NCC4CCOCC4)nc(NC4CCCC4)nc23)cc1 [Example 3-4, 4-(5-(cyclopentylamino)-7-((tetrahydro-2H-pyran-4-yl)methylamino)isoxazolo[4,5-d]pyrimidin-3-yl)-N-cyclopropylbenzamide] |  |  | 527 nM |  | 

Now from value to compound, other results behind:

IC50 (TTK; [1]) | IC50 (A549; [2]) | IC50 (TTK; read-out: TTK IC50) | SMILES | IC50 (TTK) | IC50 (A549; A549, 72 h, read-out: A549 IC50 (μM))
7.2 nM | 0.05 to 0.5 µM |  | N#Cc1ccc(-c2cn3c(-c4ccc(C(=O)NC5CC5)cc4)cnc3c(NCc3cccs3)n2)cc1 [Example 1-212] |  | 
16.1 nM | 0.05 to 0.5 µM |  | N#CCCNc1nc(-c2ccc(C#N)cc2)cn2c(-c3ccc(C(=O)NC4CC4)cc3)cnc12 [Example 1-213] |  | 
20.4 nM | 0.05 to 0.5 µM |  | N#Cc1ccc(-c2cn3c(-c4ccc(C(=O)NC5CC5)cc4)cnc3c(NCCN3CCOCC3)n2)cc1 [Example 1-216] |  | 
48.9 nM | 1 to 10 µM |  | N#Cc1ccc(-c2cn3c(-c4ccc(C(=O)NC5CC5)cc4)cnc3c(NCCOCCO)n2)cc1 [Example 1-217] |  | 
14.4 nM | 0.05 to 0.5 µM |  | N#Cc1ccc(-c2cn3c(-c4ccc(C(=O)NC5CC5)cc4)cnc3c(NCCCO)n2)cc1 [Example 1-218] |  | 
9.5 nM | 0.05 to 0.5 µM |  | N#Cc1ccc(-c2cn3c(-c4ccc(C(=O)NC5CC5)cc4)cnc3c(NCC3CC3)n2)cc1 [Example 1-219] |  | 
19.6 nM | 0.05 to 0.5 µM |  | N#Cc1ccc(-c2cn3c(-c4ccc(C(=O)NC5CC5)cc4)cnc3c(NCc3nccs3)n2)cc1 [Example 1-220] |  | 
9.5 nM | 0.05 to 0.5 µM |  | N#Cc1ccc(-c2cn3c(-c4ccc(C(=O)NC5CC5)cc4)cnc3c(NCCC3CCOCC3)n2)cc1 [Example 1-221] |  | 
16.8 nM | 0.05 to 0.5 µM |  | N#Cc1ccc(-c2cn3c(-c4ccc(C(=O)NC5CC5)cc4)cnc3c(NCC3COCCO3)n2)cc1 (stereo not shown) [Example 1-222] |  | 
17.1 nM | 0.5 to 1 µM |  | N#Cc1ccc(-c2cn3c(-c4ccc(C(=O)NC5CC5)cc4)cnc3c(NCCc3cccc(O)c3)n2)cc1 [Example 1-226] |  | 
8.3 nM | 0.05 to 0.5 µM |  | N#Cc1ccc(-c2cn3c(-c4ccc(C(=O)NC5CC5)cc4)cnc3c(NCC(F)F)n2)cc1 [Example 1-236] |  | 
39.9 nM | 1 to 10 µM |  | N#Cc1ccc(-c2cn3c(-c4ccc(C(=O)NC5CC5)cc4)cnc3c(NCCOCCOCCO)n2)cc1 [Example 1-237] |  | 
4.8 nM | 1 to 10 µM |  | N#Cc1ccc(-c2cn3c(-c4ccc(C(=O)NC5CC5)cc4)cnc3c(NC[C@H]3CC[C@H](C(=O)O)CC3)n2)cc1 [Example 1-239] |  | 
4.5 nM | 1 to 10 µM |  | NC(=O)c1ccc(-c2cc(NCC3CCOCC3)c3ncc(-c4ccc(C(=O)NC5CC5)cc4)n3n2)cc1 [Example 2-4, 4-(6-(4-Carbamoylphenyl)-8-((tetrahydro-2H-pyran-4-yl)methylamino)imidazo[1,2-b]pyridazin-3-yl)-N-cyclopropylbenzamide] |  | 
19.7 nM | 0.5 to 1 µM |  | Cc1nc(C)c(-c2cc(NCC3CCOCC3)c3ncc(-c4ccc(C(=O)NC5CC5)cc4)n3n2)s1 [Example 2-9] |  | 
9.3 nM | 0.05 to 0.5 µM |  | O=C(NC1CC1)c1ccc(-c2cnc3c(NCC4CCOCC4)cc(N4CCOCC4)nn23)cc1 [Example 2-14] |  | 
25.7 nM | 0.05 to 0.5 µM |  | CN1CCN(c2cc(NCC3CCOCC3)c3ncc(-c4ccc(C(=O)NC5CC5)cc4)n3n2)CC1 [Example 2-15] |  | 
4.8 nM | 0.05 to 0.5 µM |  | O=C(NC1CC1)c1ccc(-c2cnc3c(NCC4CCOCC4)cc(NCC4CCCCC4)nn23)cc1 [Example 2-16] |  | 
7 nM | 0.05 to 0.5 µM |  | CCCNc1cc(NCC2CCOCC2)c2ncc(-c3ccc(C(=O)NC4CC4)cc3)n2n1 [Example 2-21] |  | 
8.8 nM | 0.05 to 0.5 µM |  | N#CC1CCN(c2cc(NCC3CCOCC3)c3ncc(-c4ccc(C(=O)NC5CC5)cc4)n3n2)CC1 [Example 2-23] |  | 
5.5 nM | 0.05 to 0.5 µM |  | CC(C)N(C)c1cc(NCC2CCOCC2)c2ncc(-c3ccc(C(=O)NC4CC4)cc3)n2n1 [Example 2-24] |  | 
5.6 nM | 0.05 to 0.5 µM |  | O=C(NC1CC1)c1ccc(-c2cnc3c(NCC4CCOCC4)cc(NC4CCC4)nn23)cc1 [Example 2-25] |  | 
